pIC50: −log10 of the molar value. Read-outs that look alike come from different tables or passages of the source.
Key:
[1] = test system: PRKACA-PRKAR2A interaction (SmBiT-PRKACA / LgBiT-PRKAR2A), protein kinase A; experiment: PKA-based NanoLuc complementation control assay (counter-screen); format: binding, human; design: Inh (PKA): unit not given here; settings: 20 µM; for Inh (PKA): ApexBio FDA-approved Drug Library screen
From the text: To distinguish such false positives from genuine inhibitors of the interaction between MeCP2 and TBL1/TBLR1, a control screen is essential, utilising the same NanoLuc SmBiT and LgBiT fragments, but with an unrelated protein interaction pair. The interaction between PRKACA and PRKAR2A, which are the catalytic and regulatory subunits of human protein kinase A (PKA) respectively, has previously been measured using a NanoLuc complementation assay. We tested this pair of interacting proteins for activity in a NanoLuc complementation assay under our conditions. […] We therefore selected the PKA-based NanoLuc complementation as a suitable control assay. The effects of the four compounds identified from the Asinex library were assessed in the control PKA-based NanoLuc assay.
The AgeI-NotI restriction fragment (encoding EGFP) was then replaced with a codon optimized SmBiT sequence to yield the MeCP2-SmBiT expression plasmid. […]
In the screens described here, the lysate obtained from a single 15 cm plate was used for 2.5 384-well assay plates. […] After 30 min incubation at room temperature, luminescence was measured on a Tecan M1000 multi-mode plate reader. Raw luminescence reads from each well on each plate were normalized to the median luminescence signal for that plate. […] After plate normalization the robust SSMD (SSMD*) was calculated as described elsewhere. […]
Assays were performed as described above except instead of a single concentration, a threefold serial dilution ranging from 60 to 0.03 μM was tested in triplicate for each of the compounds. Half-maximal inhibitory concentrations were calculated using global nonlinear regression by fitting the response data sets of all compounds simultaneously with a four-parameter logistic curve of log inhibitor concentration versus normalized luminescence using GraphPad Prism. […] The luminescence signal of each compound concentration was normalized by dividing the luminescence signal of the DMSO control.

[2] = biological target: T1, MeCP2-TBL1 interaction (MeCP2-SmBiT / TBL1-LgBiT) (Mus musculus, UniProt Q9QXE7); experiment: MeCP2-TBL1 NanoLuc luciferase complementation assay (cell-free, extracts of transfected HEK293 cells); format: binding, human; settings: for pIC50: dose response 0.3–60 μM, triplicate, 30 min, luminescence normalized to DMSO, read-out: IC50, inhibition of MeCP2-TBL1 luminescence signal; for Inh (MeCP2-TBL1): ApexBio FDA-approved Drug Library screen, 20 µM
T1 construct: expressed in transfected cells; crude lysate used as a cell-free assay
T1 sequence (Q9QXE7 166-527): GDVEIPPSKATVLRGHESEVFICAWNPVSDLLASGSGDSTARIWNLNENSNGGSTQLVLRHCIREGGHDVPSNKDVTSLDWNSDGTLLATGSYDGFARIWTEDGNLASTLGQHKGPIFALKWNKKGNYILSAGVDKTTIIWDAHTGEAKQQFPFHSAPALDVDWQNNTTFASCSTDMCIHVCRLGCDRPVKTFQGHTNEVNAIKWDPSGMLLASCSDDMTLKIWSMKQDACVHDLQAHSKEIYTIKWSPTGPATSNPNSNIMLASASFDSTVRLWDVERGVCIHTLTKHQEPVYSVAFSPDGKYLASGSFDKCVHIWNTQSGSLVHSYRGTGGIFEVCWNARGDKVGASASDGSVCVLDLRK
Method in brief: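 Cell-free split NanoLuc: lysate of HEK293 cells co-expressing the MeCP2 C-terminal half-SmBiT and TBL1 WD domain-LgBiT, mixed 1:1 with furimazine. After 30 min at room temperature, luminescence was plate-median normalized.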

[3] = test system: PRKACA-PRKAR2A interaction (SmBiT-PRKACA / LgBiT-PRKAR2A), protein kinase A; design: NanoLuc complementation counter-screen in cell extract, PRKACA with PRKAR2A, loss of luminescence, detects NanoLuc interference; settings: counter-screen for NanoLuc interference; 0.5 h, 20 µM; inhibitor
Protocol: In the screens described here, the lysate obtained from a single 15 cm plate was used for 2.5 384-well assay plates. NanoLuc substrate (furimazine) (Promega, N1110) was diluted 1000-fold in passive lysis buffer (Promega, E1941) and added 1:1 to the lysate. Screening libraries were purchased from Asinex[40] and ApexBio (FDA-approved Drug Library, L1021). Compounds were dispensed using an Echo acoustic dispenser and tested at a final concentration of 20 µM in a total assay volume of 20 μl in 384-well plate format. DMSO was added to each well at a final concentration of 0.2% (v/v) and wells containing only DMSO were used as negative control. After 30 min incubation at room temperature, luminescence was measured on a Tecan M1000 multi-mode plate reader. Raw luminescence reads from each well on each plate were normalized to the median luminescence signal for that plate. […] After plate normalization the robust SSMD (SSMD*) was calculated as described elsewhere. […] The interaction between PRKACA and PRKAR2A, which are the catalytic and regulatory subunits of human protein kinase A (PKA) respectively, has previously been measured using a NanoLuc complementation assay. […] The effects of the four compounds identified from the Asinex library were assessed in the control PKA-based NanoLuc assay. […]

[4] = biological target: T2, TBLR1 (Homo sapiens, UniProt Q9BZK7); experiment: MeCP2 peptide SPOT array probed with recombinant HIS6-tagged TBLR1; format: binding; settings: recombinant HIS6-tagged TBLR1 2 µM
T2 sequence (Q9BZK7 1-514): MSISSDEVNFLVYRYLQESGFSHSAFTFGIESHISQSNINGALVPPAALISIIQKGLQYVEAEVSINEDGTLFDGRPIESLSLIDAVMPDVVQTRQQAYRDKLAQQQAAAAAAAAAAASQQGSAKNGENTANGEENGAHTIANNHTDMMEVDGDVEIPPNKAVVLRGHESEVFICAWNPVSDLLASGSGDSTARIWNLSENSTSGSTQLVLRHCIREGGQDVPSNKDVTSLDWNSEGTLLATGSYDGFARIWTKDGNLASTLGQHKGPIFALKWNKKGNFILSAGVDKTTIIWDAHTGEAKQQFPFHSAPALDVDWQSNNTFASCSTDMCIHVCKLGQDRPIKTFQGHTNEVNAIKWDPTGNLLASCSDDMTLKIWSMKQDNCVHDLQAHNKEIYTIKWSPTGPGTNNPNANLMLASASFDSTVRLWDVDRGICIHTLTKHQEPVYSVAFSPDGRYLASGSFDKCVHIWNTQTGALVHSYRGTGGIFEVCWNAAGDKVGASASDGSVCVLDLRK
Protocol: The Z-factor is a statistic frequently used to assess the suitability of an assay for high throughput screening. We calculated the Z-factor of our assay in 384-well plate format using a short 12 residue MeCP2 NID derived-peptide variant as positive control and DMSO as negative control.
Western blotting was performed using antibodies against NanoLuc (Promega), MeCP2 (Sigma, M6818) and Sin3A (Abcam, Ab3479). […] The biotin at the N-terminus of these peptides was not relevant to the experiments in this work. […] The array membrane was incubated with recombinant HIS6‐tagged TBLR1 (2 µM) and immunodetection was performed with anti-HIS antibody (Sigma, H1029). Uniform synthesis efficiency across the array was ascertained by UV absorption. […] Note the shorter N-terminus and longer C-terminus of this peptide compared to the sequences used on the SPOT array. UMT026-2 was used at 50 µM when calculating the Z-factor[39].
The wild-type amino acids at these positions (Pro, Ile, Lys and Lys) make directs contacts with TBLR1. Arrows denote spots with increased binding and red dots indicate the wild-type amino acid.

C[C@H]1CC[C@H]2[C@H](O1)c1cc(OCC(=O)NCc3ccccc3)ccc1OC2(C)C [BDG 34039627]
effect on luminescence in PKA control assay ([1]; n = 3): did not cause a reduction in luminescence
extent of MeCP2-TBL1 inhibition reached within the tested concentration range ([2]; 0.3–60 μM): able to return the luminesce signal back to baseline
separation between MeCP2-TBL1 inhibition and inhibition of the PKA control in dose response ([2]; 0.3–60 μM, PKA-based assay run in parallel): clear separation
pIC50 [2]: 4.74

Oc1ccc(Nc2nc(-c3ccc(Cl)cc3)cs2)cc1 [SKI II, reference compound]
Inh (PKA) [1]: 14.6502
Inh (MeCP2-TBL1) [2]: 10.5772

C=C1C(=O)O[C@@H]2[C@H]3O[C@]3(C)CC/C=C(\C)CC[C@@H]12 [UM0142841:01, Parthenolide]
Inh (PKA) [3]: 0.7412%

COc1ccc(/C(Cl)=C(/C=O)c2ccc(OC)cc2)cc1 [Windorphen, reference compound]
Inh (PKA) [1]: 33.916
Inh (MeCP2-TBL1) [2]: 12.6933

Ac-ETVLPIYKRKTR-NH2 [K304Y mutant peptide]
pIC50 [2]: ~4.40
TBL1/TBLR1 binding on peptide SPOT array relative to wild type [4]: stronger TBL1/TBLR1 binder
